The EC50 is the concentration giving half of the maximal effect. The term IC50 denotes the concentration at which inhibition is half-maximal. The low end stands for greater potency in that assay, the high end for weaker potency in that assay.

Where “and” joins values, the source holds several entries; their conditions need not be identical. Equal entries are not always repeated. Calls of active or inactive are those of the source.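 Rule for the calls: active = compounds giving half or more protection of infected cells from virus-caused growth loss, again on retest; inactive = the rest.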

This test deals with CEM cells HIV-1 protection, formazan growth assay. As to the kind of experiment: NCI AIDS Antiviral Assay. The note with it: for IC50: measured here: growth of uninfected CEM cells. In outline: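 Protection of CEM cells against HIV-1 was scored from cell growth (soluble formazan) across five concentrations, with parallel uninfected cells. Lack of protection may reflect toxicity.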

For the molecule `C[C@@H]1c2ccc3c(c2C2(O)C[C@H]4CCC1N2C4)CC1[C@H]3CC(=O)C2C[C@@H](O)CC[C@@]21C` (some centres not stated), the EC50 is above 155 µM and the IC50 is above 155 µM.
Regarding `O=C1NNC2(C(=O)N1)c1ccccc1-c1ccccc12`, the EC50 is above 200 µM and the IC50 is 93.3 µM.
In the case of `CN(C)c1ccc(/C=N/NC(=S)Nc2ccccc2)cc1`, the EC50 is above 200 µM and the IC50 was above 200 µM.
As for `COc1c(Cl)cc(C(=O)c2cc(Cl)c(OC)c(C(=O)O)c2)cc1C(=O)O`, the EC50 was above 912 µM and the half-inhibitory concentration (IC50) is above 912 µM.
`CC(=O)c1c2c(cc3c1CC1(Cc4cc5c(cc4C1=O)CCC5)C3)CCC2` (configuration not stated): the EC50 was above 200 µM and the IC50 came to 13.5 µM.
The corresponding values for `OC1(c2ccccc2)c2ccccc2CCC1Br` (configuration not stated) are above 200 µM and 56.2 µM.
The corresponding values for `O=C1Nc2ccccc2Sc2ccccc21` are 93.3 µM and 115 µM.
With `CN(C)C(=S)/N=c1\ssc(=S)n1Cc1ccco1`, the result was inactive.
With `NC(=S)N/N=C1\CCCc2ccccc21`, the EC50 was above 162 µM and the IC50 turned out to be 81.3 µM.
The corresponding values for `COC(=O)C1=Cc2cc(OC)c(O)cc2[C@@H](c2ccc(O)c(OC)c2)[C@@H]1C(=O)OC` are above 200 µM and 77.6 µM.
Turning to `C=C1CCC2C(C)(CO)C(O)CCC2(C)C1C/C=C1/CCOC1=O` (configuration not stated), the outcome was inactive.
On to `CC(=O)OC12c3ccccc3C(c3ccccc31)C1C(=O)N(c3ccccc3O)C(=O)C12` (configuration not stated), for which the 50% effective concentration (EC50) is 100 µM and the 50% inhibitory concentration (IC50) came out at 105 µM.
Consider `Cc1ccc(S(=O)OCc2c(C)c(C)c(COS(=O)c3ccc(C)cc3)c(C)c2C)cc1` (configuration not stated), for which the result was inactive.
For `COc1cc2c(cc1O)[C@H](C)C(c1ccc(Cl)cc1)O2` (some centres not stated), the EC50 was above 64.6 µM and the 50% inhibitory concentration (IC50) amounted to 33.1 µM.
Turning to `CN(N)c1cn[nH]c(=O)c1Cl`, the EC50 was above 200 µM and the 50% inhibitory concentration (IC50) was above 200 µM.
Take `COc1cc2c(cc1O)C1(Cc3ccc4c(c3C1=O)OCO4)N(C)CC2` (configuration not stated): the EC50 was above 200 µM and the concentration for half-maximal inhibition (IC50) was above 200 µM.
Turning to `O=C1/C(=C2\Sc3c(ccc(Cl)c3Cl)C2=O)Sc2c1ccc(Cl)c2Cl`, the EC50 was above 200 µM and the IC50 was above 200 µM.
With `CC(NC(=O)C1CCCN1C(=O)OC(C)(C)C)C(=O)OCc1ccccc1` (configuration not stated), the EC50 is above 95.5 µM and the IC50 came to 60.3 µM.
Taken in the same sequence, the figures for `CCOC(=O)NC(Nc1ncccn1)(C(=O)OCC)C(F)(F)F` (configuration not stated) were above 200 µM and above 200 µM.
For `O=C(O)c1c2c(c(C(=O)O)c3ccccc13)-c1ccccc1-2`, the result was inactive.
On to `O=c1oc2ccccc2c(O)c1/C=N\c1nc(-c2ccccc2)cs1`, for which the EC50 is above 200 µM and the 50% inhibitory concentration (IC50) was determined as 3.39 µM.
The corresponding values for `CC(CCC(=O)O)(CCC(=O)O)[N+](=O)[O-]` are above 1150 µM and above 1150 µM.
For the molecule `O=C1Cc2c([nH]c3ccc(Cl)cc23)-c2ccccc2N1`, the EC50 was above 200 µM and the concentration for half-maximal inhibition (IC50) stood at 17.4 µM.
Consider `Cc1coc(NS(=O)(=O)c2ccc(N=Nc3c(N)n(C)c(=O)n(C)c3=O)cc2)c1C`, for which the outcome was inactive.
As for `O=C1N[Se](=O)c2ccccc21` (configuration not stated), the EC50 is 2.69 µM and the half-inhibitory concentration (IC50) is 22.9 µM.
Consider `CN(C)Cc1cc(C(=O)/C=C/c2c(F)cccc2Cl)cc(CN(C)C)c1O`, for which the EC50 was above 20 µM and the half-maximal inhibitory concentration (IC50) was determined as 4.68 µM.
The corresponding values for `NC(=O)C(=O)C1CCC2=C(Sc3ccccc3N2)C1=O` (configuration not stated) are above 46.8 µM and above 46.8 µM.
With `CCCCCCNC(=O)CNC(=O)c1ccccc1SC(=O)CCCC[n+]1ccccc1`, the EC50 is above 200 µM and the IC50 is 34.7 µM.
The corresponding values for `O=C1C=C(NCCc2ccccc2)c2ccccc2C1=O` are above 36.3 µM and 25.1 µM.
`COc1cccc(C2SCc3nc4ccccc4n32)c1` (configuration not stated): the outcome was inactive.
Same read-out and setting: the entry for `NC(=NCC(=O)O)c1ncn(C2OC(CO)C(O)C2O)n1` (configuration not stated) is “inactive”.
With `O=CCC(O)C(O)C(O)CO` (configuration not stated), the EC50 was above 759 µM and the IC50 was above 759 µM.
Regarding `O=C(OCCN1CCCC1)c1cc2ccccc2n1Cc1ccccc1`, the EC50 was above 200 µM and the 50% inhibitory concentration (IC50) turned out to be 36.3 µM.
The corresponding values for `Nc1c(S(=O)(=O)O)cc(S(=O)(=O)O)c2ccc(N=Nc3ccc(CCc4ccc(N=Nc5ccc6c(S(=O)(=O)O)cc(S(=O)(=O)O)c(N)c6c5O)cc4S(=O)(=O)O)c(S(=O)(=O)O)c3)c(O)c12` are 8.13 µM and 138 µM.
Taken in the same sequence, the figures for `Cc1nn(-c2ccccc2)c(=O)n2c1nc1ccccc12` were above 93.3 µM and 58.9 µM.
The corresponding values for `CO[C@@]12CC(=O)/C(=C(O)\C=C\c3ccccc3)C(=O)[C@]1(O)Cc1ccccc1O2` are above 316 µM and 42.7 µM.
For `CSC1=NS(=O)(=O)c2cc(C(=O)NN(C)C(=O)c3cc4c(cc3Cl)SC(SC)=NS4(=O)=O)c(Cl)cc2S1`, the EC50 is above 200 µM and the 50% inhibitory concentration (IC50) worked out at 91.2 µM.
Take `C[C@H](NS(=O)(=O)c1ccc(NC(=O)c2ccccc2)cc1)C(=O)O`: the outcome was inactive.
On to `CCCc1cc(=O)oc2c3c(cc(OC)c12)O[C@H](C)C(C)C3=O` (some centres not stated), for which the EC50 was above 200 µM and the IC50 worked out at 58.9 µM.
The corresponding values for `Cc1cn(C2O[C@@H]3CN(O)[C@H](C)[C@]3(O)C2O)c(=O)[nH]c1=O` (some centres not stated) are above 200 µM and above 200 µM.
With `CC1CC(C)(C)N=C(C(C)CC2CCCCC2)O1` (configuration not stated), the EC50 is above 200 µM and the IC50 came out at 21.9 µM.
Turning to `CC(C)S(=O)(=O)O`, the EC50 was above 200 µM and the IC50 is above 200 µM.
Consider `O=c1[nH]c(=O)n(C2COC(CO)C2O)cc1F` (configuration not stated), for which the EC50 was above 200 µM and the 50% inhibitory concentration (IC50) amounted to 6.03 µM.
The corresponding values for `CC(=O)OCC12CCC3C4(C)CCCC(C)(C)C4CCC3(C)C1CC(C1=CC(=O)OC1O)O2` (configuration not stated) are above 200 µM and 1.05 µM.
With `Cn1cc(NC(=O)[C@@H]2CCC(N)=N2)cc1C(=O)NCCC(=N)N`, the outcome was inactive.
In the case of `O=S1(=O)c2ccccc2N2CCCc3cc(Cl)cc1c32`, the EC50 is above 200 µM and the IC50 is above 200 µM.
On to `CC[n+]1c([S-])nn(C)c1-c1cnccn1`, for which the EC50 is above 200 µM and the IC50 was above 200 µM.
With `CC1=CC=C2c3ccccc3C=CN2C(=O)C1`, the EC50 was above 200 µM and the half-inhibitory concentration (IC50) came to 89.1 µM.
The corresponding values for `CC(=O)NC(C=O)C(O[C@H](C)C(=O)NC(C)C(=O)NC(CCC(N)=O)C(=O)OCc1ccccc1)C(O)C(O)COC(=O)CCNc1c2ccccc2nc2cccc([N+](=O)[O-])c12` (some centres not stated) are above 21.4 µM and 15.1 µM.
Taken in the same sequence, the figures for `CCCCOC(=O)C(=O)C(CCC(=O)c1ccc(C)cc1)C(=O)C=C(C)C` (configuration not stated) were above 69.2 µM and above 69.2 µM.
Take `Cc1nc(=O)n2c(c1C(=O)Nc1ccc(Cl)cc1)NCC2`: the result was inactive.
In the case of `Cc1c(C(=O)C/C(=N/NC(=O)C[N+](C)(C)C)C(=O)Nc2ccc(Cl)cc2)[n+](=O)c2ccccc2n1O`, the EC50 is above 9.12 µM and the concentration for half-maximal inhibition (IC50) is above 9.12 µM.
For the molecule `O=C(O)CCSC(=O)Nc1cccc(F)c1`, the outcome was inactive.
Regarding `C=C1SC(=Nc2cccc(OC)c2)N(c2nc(Cl)nc(Cl)n2)C1(C)C`, the EC50 is above 112 µM and the IC50 came out at 20 µM.
The corresponding values for `NC(=O)NN=C1Cc2ccccc2C1` are above 200 µM and above 200 µM.
The corresponding values for `COc1cccc(C2Nc3ccccc3C(=O)N2N2CCOCC2)c1` (configuration not stated) are above 200 µM and above 200 µM.
Taken in the same sequence, the figures for `CCOC(=O)COc1ccc(C[C@H](NC(=O)O[C@H]2CCOC2)[C@H](O)CN(CC(C)C)S(=O)(=O)c2ccc(N)cc2)cc1` were 0.0589 µM and 64.6 µM.
Consider `COC(=O)c1c(C)cccc1C1CN=NC12Cc1cc(C)cc(C)c1C2=O` (configuration not stated), for which the EC50 was above 200 µM and the IC50 turned out to be 33.1 µM.
Taken in the same sequence, the figures for `c1ccc(COCC23CCN(Cc4ccccc4)C(CC(OCc4ccccc4)C2)S3)cc1` (configuration not stated) were above 200 µM and 45.7 µM.
As to `COc1ccc(C[N+](C)(C)N)cc1OC`, the EC50 is above 200 µM and the IC50 was above 200 µM.
For the molecule `Cc1nc(Nc2ccc(Cl)c(Cl)c2)sc1C(=O)/C=C/c1ccc2c(c1)OCO2`, the EC50 is above 200 µM and the half-inhibitory concentration (IC50) amounted to 13.5 µM.
Take `Cc1nc2c(nc1C)C(=O)C(N)=CC2=O`: the result was inactive.
Consider `O=C(O)CC(c1ccccc1)C(CC(=O)O)c1ccccc1` (configuration not stated), for which the EC50 was above 437 µM and the IC50 is above 437 µM.
For the molecule `C/C=N\n1c(C)c(C#N)c(C#N)c1N`, the EC50 was above 200 µM and the half-maximal inhibitory concentration (IC50) is above 200 µM.
Take `S=c1ncnc2cc3[nH][nH]cc3cc12`: the EC50 was above 67.6 µM and the half-inhibitory concentration (IC50) worked out at 49 µM.
Taken in the same sequence, the figures for `C/C(C=O)=C\c1ccc(N(C)C)cc1` were above 38 µM and above 38 µM.
Taken in the same sequence, the figures for `OC12CCC3(O)c4ccccc4C3C1c1ccccc12` (configuration not stated) were above 200 µM and above 200 µM.
As for `CCC(C)(C)C1CCC2c3c([nH]c4ccccc34)C3C(=O)N(c4ccc(OC)cc4)C(=O)C3C2C1` (configuration not stated), the EC50 is above 200 µM and the IC50 came out at 7.76 µM.
Taken in the same sequence, the figures for `Cc1cccc(C2=NC(c3ccccc3)C(c3ccccc3)N=C2c2cccc(C)n2)n1` (configuration not stated) were above 16.2 µM and above 16.2 µM.
The corresponding values for `NC(=O)Cc1nc2c(N)ncnc2n1C1OC(CO)C(O)C1O` (configuration not stated) are above 200 µM and above 200 µM.
In the case of `C/C=C/C[P+](c1ccccc1)(c1ccccc1)c1ccccc1`, the EC50 was above 200 µM; the half-maximal inhibitory concentration (IC50) was 1.48 µM and 1.32 µM.
On to `Cc1ccc2c(c1)-c1c(C#N)c(N)nc(-c3ccccc3)c1CCS2(=O)=O`, for which the EC50 is above 200 µM and the IC50 is 2.09 µM.
Taken in the same sequence, the figures for `Cc1cccc(NC(=O)Nc2ccc(F)cc2)n1` were 129 µM and above 200 µM.
`Cc1noc(/N=C2\C=C(Nc3onc(C)c3C)C(=O)c3ccccc32)c1C`: the EC50 is above 2.75 µM and the concentration for half-maximal inhibition (IC50) was above 2.75 µM.
Regarding `COc1ccc2c3c(c(C(=O)c4ccccc4)oc13)CCC2`, the result was inactive.

Values taken from PubChem BioAssay AID179 (DTP/NCI, 2004).
